Article PMC6667281 (Biochemistry, 2019)

How the values were obtained:
[1] = target: T1, CymD (Salinispora arenicola, UniProt A8M6W6); assay: prenyl donor in coupled pyrophosphate-release assay with purified CymD; assay type: biochemical
[2] = target: T1, CymD; assay: ITC; assay type: binding

T1 sequence (A8M6W6 2-373): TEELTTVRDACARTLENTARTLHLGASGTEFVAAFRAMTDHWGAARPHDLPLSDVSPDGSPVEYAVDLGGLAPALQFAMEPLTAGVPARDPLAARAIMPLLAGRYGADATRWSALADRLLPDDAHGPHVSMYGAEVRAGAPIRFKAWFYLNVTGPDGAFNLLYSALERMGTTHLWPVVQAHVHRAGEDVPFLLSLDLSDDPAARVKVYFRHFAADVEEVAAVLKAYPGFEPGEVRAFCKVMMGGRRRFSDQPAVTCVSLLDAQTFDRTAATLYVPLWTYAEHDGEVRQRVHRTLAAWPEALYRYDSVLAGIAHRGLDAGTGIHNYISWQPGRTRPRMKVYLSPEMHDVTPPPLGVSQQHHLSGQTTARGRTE

CC(C)=CCOP(=O)(O)OP(=O)(O)O [DMAPP]
prenyl donor in coupled pyrophosphate-release assay with purified CymD [1]: Specific activities of CymD with DMAPP and various prenyl acceptor substrates.

N[C@@H](Cc1c[nH]c2ccccc12)C(=O)O [L-Trp]
Kd [2]: 4.4 ± 0.4 µM
